Paper PMC4111878, “Three New Humulane Sesquiterpenes from Cultures of the Fungus Antrodiella albocinnamomea” (Natural Products and Bioprospecting, 2014)

Experiments:
[1] = target: T1, PTP1Bc (Homo sapiens, UniProt P18031); experiment: Enzyme inhibition assay against protein-tyrosine phosphatase PTP1Bc (pNPP hydrolysis); type: biochemical; conditions: recombinant His-tagged enzyme, 20 ng per well, pNPP 2 mM, pH 6.0, room temperature, 15 min preincubation, triplicate; NA = no activity; read-out: inhibitory activity against protein-tyrosine phosphatase PTP1Bc, IC50 (converted)
T1 sequence (P18031 1-298 limits assumed): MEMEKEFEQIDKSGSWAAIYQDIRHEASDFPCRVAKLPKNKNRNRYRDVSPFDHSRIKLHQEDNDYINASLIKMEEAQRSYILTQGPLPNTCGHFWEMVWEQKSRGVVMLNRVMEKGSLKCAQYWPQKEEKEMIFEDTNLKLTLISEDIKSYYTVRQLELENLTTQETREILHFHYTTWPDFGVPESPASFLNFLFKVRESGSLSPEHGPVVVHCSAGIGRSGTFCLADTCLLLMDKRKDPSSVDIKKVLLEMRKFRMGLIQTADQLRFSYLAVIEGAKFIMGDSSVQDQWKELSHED
Protocol: (§1) The enzymatic assay was carried out at room temperature in 96-well plates. After the assay buffer which contained 100 mM Hepes (pH 6.0), 5 mM DTT 0.015 % Brij-35 and PTPase (20 ng PTP1B, 10 ng MEG2per well) was incubated with tested compounds for 15 min, the reaction was initiated by addition of the substrate p-nitrophenol phosphate (pNPP, Sigma, P4744, St. Louis, USA) at a final concentration of 2 mM. The activity of PTPase-catalyzed hydrolysis of pNPP was determined by measuring the amount of p-nitrophenol and the absorbance at 405 nm was recorded as the amount of p-nitrophenol. The IC50 value was determined by the non-linear curve fitting of the percentage inhibition versus inhibitor concentration plot. […] Louis, USA) was used for the positive control. All the assays were carried out in triplicate and the average results were presented.

[2] = target: T2, MEG2 (Homo sapiens, UniProt P43378); experiment: Enzyme inhibition assay against protein-tyrosine phosphatase MEG2 (pNPP hydrolysis); type: biochemical; conditions: recombinant His-tagged enzyme, 10 ng per well, pNPP 2 mM, pH 6.0, room temperature, 15 min preincubation, triplicate; NA = no activity; read-out: inhibitory activity against protein-tyrosine phosphatase MEG2, IC50 (converted)
T2 construct: 6xHis (N); made in house; host or cells: E. coli
T2 sequence (P43378 1-593): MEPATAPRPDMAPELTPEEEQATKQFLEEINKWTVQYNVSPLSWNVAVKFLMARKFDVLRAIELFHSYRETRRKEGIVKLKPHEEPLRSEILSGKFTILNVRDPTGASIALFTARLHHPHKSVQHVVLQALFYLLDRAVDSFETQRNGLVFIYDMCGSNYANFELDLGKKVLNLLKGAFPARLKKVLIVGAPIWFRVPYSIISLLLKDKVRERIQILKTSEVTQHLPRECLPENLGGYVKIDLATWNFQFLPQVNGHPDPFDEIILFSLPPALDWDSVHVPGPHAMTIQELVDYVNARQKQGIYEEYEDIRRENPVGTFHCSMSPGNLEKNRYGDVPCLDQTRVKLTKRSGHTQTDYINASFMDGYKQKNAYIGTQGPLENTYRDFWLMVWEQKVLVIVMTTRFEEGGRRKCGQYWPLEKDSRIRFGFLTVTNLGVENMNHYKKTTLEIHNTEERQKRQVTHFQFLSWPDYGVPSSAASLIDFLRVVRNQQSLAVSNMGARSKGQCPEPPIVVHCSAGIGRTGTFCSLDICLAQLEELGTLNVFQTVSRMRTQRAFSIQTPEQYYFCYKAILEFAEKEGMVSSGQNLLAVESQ
Protocol: as §1

| IC50 [1] | IC50 [2] | SMILES |
| --- | --- | --- |
| 39.3 µM | 31.5 µM | CC1=CC(O)C(C)(O)C(C)CCC2(C)OC2CC1 (stereo not shown) [Compound 1, 6,7-epoxy-10E-humulen-1,2-diol] |
| 59.8 µM |  | CC1(C)C=CC(O)C2(C)OC2CCC2(C)OC2C1 (stereo not drawn) [Compound 3, 6,7:10,11-diepoxy-3E-humulen-5β-ol] |
|  | 1.75 µM | C[C@H]1[C@H](C)CC[C@]2(C(=O)O)CC[C@]3(C)C(=CC[C@@H]4[C@@]5(C)CC[C@H](O)C(C)(C)[C@@H]5CC[C@]43C)[C@H]12 [Ursolic acid, reference compound] |
